Measurements taken from patent US5378723A (priority 1994, dated 1995).
“Also recorded” adds a separate entry of the source. Like-named read-outs stand apart in the source and are kept apart here.

Legend:
cholinesterase (ChE) [1] = format: biochemical
cholinesterase (ChE) [2] = details: cited from earlier work
AChE = format: in vivo, rat; details: for inhibiting properties and persistence: dialkylcarbamate vs mono-substituted carbamate
neuromuscular AChR = details: natural isomer; cited from earlier work
human erythrocyte AChE = biological target: T1, human erythrocyte AChE (Homo sapiens, UniProt P22303); experiment: biochemical
T1 construct: Erythrocytes were washed three times in isotonic saline, lysed; from tissue; host or cells: human erythrocytes from freshly collected blood, washed, lysed in 0.5% Triton-X
T1 sequence (P22303-2 with tags, fused parts or gaps limits assumed): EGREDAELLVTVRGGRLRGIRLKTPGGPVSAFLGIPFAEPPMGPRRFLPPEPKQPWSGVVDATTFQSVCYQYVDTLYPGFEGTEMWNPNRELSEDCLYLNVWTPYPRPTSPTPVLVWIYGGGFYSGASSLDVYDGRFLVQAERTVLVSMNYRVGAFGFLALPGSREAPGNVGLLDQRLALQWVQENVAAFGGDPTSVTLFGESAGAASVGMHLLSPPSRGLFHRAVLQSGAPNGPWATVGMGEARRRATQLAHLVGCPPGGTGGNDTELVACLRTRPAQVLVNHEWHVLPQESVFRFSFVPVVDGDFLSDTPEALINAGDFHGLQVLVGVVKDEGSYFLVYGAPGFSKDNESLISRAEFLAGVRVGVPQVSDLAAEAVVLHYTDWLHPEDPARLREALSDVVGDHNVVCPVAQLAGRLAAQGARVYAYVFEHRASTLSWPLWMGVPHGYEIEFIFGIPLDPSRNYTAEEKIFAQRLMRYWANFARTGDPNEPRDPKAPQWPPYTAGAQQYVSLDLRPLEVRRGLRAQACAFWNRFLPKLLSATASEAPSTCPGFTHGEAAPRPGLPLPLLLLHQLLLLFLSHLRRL

human plasma BChE = biological target: T2, human plasma BChE (Homo sapiens, UniProt P06276); experiment: biochemical
T2 construct: the plasma was separated and diluted; from tissue; host or cells: human plasma from freshly collected blood, diluted 1:125
T2 sequence (P06276 29-602): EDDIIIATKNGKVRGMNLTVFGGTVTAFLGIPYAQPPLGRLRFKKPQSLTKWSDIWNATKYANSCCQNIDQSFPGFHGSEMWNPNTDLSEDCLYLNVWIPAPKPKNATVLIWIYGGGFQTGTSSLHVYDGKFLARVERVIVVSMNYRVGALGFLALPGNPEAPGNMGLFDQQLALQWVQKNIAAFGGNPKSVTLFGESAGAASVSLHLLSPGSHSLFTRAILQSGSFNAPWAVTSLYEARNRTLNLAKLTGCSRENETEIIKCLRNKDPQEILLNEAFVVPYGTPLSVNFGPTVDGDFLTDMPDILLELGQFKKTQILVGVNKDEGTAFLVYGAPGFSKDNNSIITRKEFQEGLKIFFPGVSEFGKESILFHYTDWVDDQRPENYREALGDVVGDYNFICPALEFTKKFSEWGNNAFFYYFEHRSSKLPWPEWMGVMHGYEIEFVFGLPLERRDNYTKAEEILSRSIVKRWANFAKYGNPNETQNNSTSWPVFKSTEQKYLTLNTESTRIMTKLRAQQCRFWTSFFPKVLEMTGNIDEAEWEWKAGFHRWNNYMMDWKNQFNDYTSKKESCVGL

[3] = AChE vs BChE, in vitro, biological standards
[4] = AChE vs BChE, in vitro, used as biological standards in this art area

Compound | IC50 (human erythrocyte AChE) [µM] | IC50 (human plasma BChE) [µM] | other results
CNC(=O)Oc1ccc2c(c1)[C@]1(C)CCN(C)[C@@H]1N2C [(-)-physostigmine] |  |  | inhibition of AChE and BChE in vitro, comparison (cholinesterase (ChE) [1]): similarly at similar concentrations; inhibition of AChE and BChE in vitro, comparison (cholinesterase (ChE) [2]): similarly at similar concentrations; inhibition of cholinesterases in vitro and in vivo (cholinesterase (ChE) [2]): potent inhibitors of cholinesterases in vitro and in vivo; duration of action of AChE inhibition (AChE; rat, in vivo, iv): duration of action is short; in vivo inhibition of AChE (AChE; rat, in vivo, iv): good inhibition properties; properties at the neuromuscular AChR (neuromuscular AChR): blocking properties as well as agonist properties
CCc1ccccc1NC(=O)Oc1ccc2c(c1)[C@]1(C)CCS[C@@H]1N2C [Ex. 5, (-)-3,3a,8,8a-tetrahydro-3a,8-dimethyl-2H-thieno[2,3-b]indole-5-ol 2'-ethylphenylcarbamate] | 0.0301 ± 0.0002 | 3.43 ± 0.259 | 
CNC(=O)Oc1ccc2c(c1)[C@]1(C)CCO[C@@H]1N2C [(-)-physovenine] |  | 0.0027 ± 0.0014 | inhibition of AChE and BChE in vitro, comparison (cholinesterase (ChE) [1]; [3]): similarly at similar concentrations; inhibition of AChE and BChE in vitro, comparison (cholinesterase (ChE) [2]; [4]): similarly at similar concentrations; inhibition of cholinesterases in vitro and in vivo (cholinesterase (ChE) [2]; prior art): potent inhibitors of cholinesterases in vitro and in vivo
Cc1ccccc1NC(=O)Oc1ccc2c(c1)[C@]1(C)CCS[C@@H]1N2C [Ex. 4, (-)-3,3a,8,8a-tetrahydro-3a,8-dimethyl;-2H-thieno[2,3-b]indole-5-ol 2'-methylphenylcarbamate] | 0.029 ± 0.0056 | 5.28 ± 0.354 | 
CCCCNC(=O)Oc1ccc2c(c1)[C@]1(C)CCS[C@@H]1N2C [Ex. 1, (-)-3,3a, 8,8a-tetrahydro-3a, 8-dimethyl-2H-thieno-[2,3-b]indole-5-ol butyl carbamate] | 0.0135 ± 0.0015 | 0.0007 ± 0.0001 | 
CNC(=O)Oc1ccc2c(c1)[C@@]1(C)CCN(C)[C@H]1N2C [(+)-physostigmine] |  |  | inhibition of cholinesterase (ChE) (cholinesterase (ChE) [2]): only negligible inhibition; also recorded: only negligible ChE inhibitory activity
CNC(=O)Oc1ccc2c(c1)[C@]1(C)CCS[C@@H]1N2C [(-)-thiaphysovenine] |  |  | inhibiting properties and persistence (AChE): good inhibition properties but does not persist; duration of action / persistence of AChE inhibition (AChE; rat plasma, i.v., 5 mg/kg, 480 minute period, FIG. 2): short duration of action; duration of action of AChE inhibition (AChE; rat plasma, i.v., FIG. 1): duration of action is short; in vivo inhibition of AChE (AChE; rat plasma, i.v., FIG. 1): good inhibition properties
CC(C)c1ccccc1NC(=O)Oc1ccc2c(c1)[C@]1(C)CCS[C@@H]1N2C [Ex. 6, (-)-3,3a,8,8a-tetrahydro-3a,8-dimethy-2H-thieno[2,3-b]indole-5-ol 2'-isopropylphenylcarbamate] | 0.0255 ± 0.0033 | 0.963 ± 0.106 | 
CN1c2ccc(OC(=O)Nc3ccccc3)cc2[C@]2(C)CCS[C@H]12 [Ex. 3, (-)-3,3a,8,8a-tetrahydro-3a,8-dimethyl-2H-thieno[2,3-b]indole-5-ol phenylcarbamate] | 0.0272 ± 0.0071 | 1.66 ± 0.354 | 
CC(C)c1ccc(NC(=O)Oc2ccc3c(c2)[C@]2(C)CCS[C@@H]2N3C)cc1 [Ex. 7, (-)-3,3a,8,8a-tetrahydro-3a,8-dimethyl-2H-thieno[2,3-b]indole-5-ol 4'-isopropylphenylcarbamate] | > 10 | 0.0453 ± 0.0124 | 
CNC(=O)Oc1ccc2c(c1)[C@]1(C)CCN[C@@H]1N2C [(-)-N(1)-Norphysostigmine] |  |  | inhibition of AChE and BChE in vitro, comparison (cholinesterase (ChE) [1]; [3]): similarly at similar concentrations; inhibition of AChE and BChE in vitro, comparison (cholinesterase (ChE) [2]; [4]): similarly at similar concentrations
CN(C)C(=O)Oc1ccc2c(c1)[C@]1(C)CCS[C@@H]1N2C [Ex. 9, (-)-3,3a,8,8a-tetrahydro-3a,8-dimethyl-2H-thieno[2,3-b]indole-5-ol N,N-dimethylcarbamate] | 0.197 ± 0.0341 | 0.0225 ± 0.0001 | inhibiting properties and persistence (AChE): longlasting inhibiting properties
CCCCCCCNC(=O)Oc1ccc2c(c1)[C@]1(C)CCS[C@@H]1N2C [Ex. 2, (-)-3,3a,8,8a-tetrahydro-3a,8-dimethyl-2H-thieno[2,3-b]indole-5-ol heptylcarbamate] | 0.0257 ± 0.0028 | 0.0068 ± 0.0013 | 
Cc1ccc(NC(=O)Oc2ccc3c(c2)[C@]2(C)CCS[C@@H]2N3C)c(C)c1 [Ex. 8, (-) -3,3a,8,8a-tetrahydro-3a,8-dimethyl-2H-thieno[2,3-b]indole-5-ol 2',4'-dimethylphenylcarbamate] | 0.0263 ± 0.0038 | 1.87 ± 0.291 | 
